Data on 88 molecules can be found in a melting point compilation (Tetko et al.; mined from patent text by program, amines drawn as free bases though some values may be those of a salt).

Where only a bound is given, the exact number is not on record here.

What is called melting point is the temperature of the solid-liquid transition.

Turning to `CCOCc1cc2ccccc2oc1=O`, the melting point was in the range of 95 to 96 °C. Consider `CC(C)(C)c1cc(Oc2ccc(Br)cc2)cc(C(C)(C)C)c1`, for which the melting point is 98 to 100 °C. The figure for `C=CCONC(CCC)=C1C(=O)CC(C2CCOCC2)CC1=O` (stereo not drawn) is 55 to 56 °C; for `NC(=O)c1cccc(N)c1N` it is 103 to 105 °C. Then `CCc1nnc(-c2ccccc2)c(=O)n1N`, with 164 °C. Then `OCc1cc(-c2ccc(Cl)cc2)on1`, with 93 to 95 °C; and `COc1cc2c(cc1-c1cccnc1)-c1c(-c3cccs3)c3c(n1CC2)C(=O)N(C(C)C)CCN(C(C)=O)C3`, with 225 to 226 °C; and `Fc1ccc([C@@]2(Cn3nc[nH]c3=S)O[C@@H]2c2ccccc2F)c(F)c1` (relative stereo), with 144 to 148 °C. Turning to `COc1cc(C(=O)N2CCN(C(=O)OC(C)(C)C)C(CO)C2)cc(OC)c1OC` (stereo not drawn), the melting point was 119 to 120 °C. Then `O=C(O)COc1ccc2cc(-c3oc4ccccc4c3CCC3CCCC3)ccc2c1Br`, with 155 to 156 °C. The figure for `O=C(O)c1ccc(-c2ccc(Cl)s2)nc1` is > 260 °C; for `CCCC(C)(CC)C(=O)O[C@H]1C[C@H](O)C=C2C=C[C@H](C)[C@H](CC[C@@H]3C[C@@H](O)CC(=O)O3)[C@H]21` (stereo partly drawn) it is 126 to 128 °C; for `CCC(CC)(COc1ccc2ncnn2n1)CS(N)(=O)=O` it is 194 to 197 °C. The figure for `CCOC(=O)c1cnc2sc(-c3ccc(OC)cc3)c(CN(C)Cc3ccccc3)c2c1O` is 175 to 177 °C. As to `O=C(Nc1nc(C(F)(F)C(F)(F)F)c(CO)s1)c1cc(C(F)(F)F)cc(C(F)(F)F)c1`, the melting point was in the range of 164 to 165 °C.

In turn, `CC(=O)Nc1cc(C(F)(F)F)ccc1SCC#N` gave a melting point of 103 °C. The figure for `Cc1ccc(C)n1-c1c(Cl)cc(C(F)(F)F)cc1Cl` is 63 °C. The figure for `COc1ccc2c(c1)CC(C)C1C2CCC2(C)C(=O)CCC12` (stereo not drawn) is 167 to 170 °C. On to `CC(=O)On1cc(-c2ccccc2)c(=O)c(-c2cccc(C(F)(F)F)c2)c1`, for which the melting point is 232 to 235 °C. For `NC(=O)c1cccc2nnsc12`, the melting point is 270 to 272 °C.

As for `CCc1nc(-c2cccc(C)c2)c(-c2ccnc(NCC3CCCCC3)c2)s1`, the melting point lay in the range of 74 to 75 °C.

Turning to `O=c1nc(-c2ccccc2F)c2cc(Cl)ccc2[nH]1`, the melting point was > 300 °C. Then `COc1c(C(c2ccccc2)c2ccccc2)ccc2ccccc12`, with 119 to 121 °C; and `O=S1(=O)N=C2CCCN2c2ccc(S(=O)(=O)NC3CCCCC3)cc21`, with 151 to 153 °C.

With `COCc1c(-c2nnc(N)o2)ncc2[nH]c3ccc(OCc4ccccc4)cc3c12`, the melting point lay within 290 to 293 °C.

`COc1cccc(CCc2c(CCNC(=O)CCCCC(=O)NCCc3ccc(N)cc3)ccc(OC)c2OC)c1` had a melting point of 163 to 165 °C. Then `Cn1ncc(/C=C/C(=O)Nc2ccc(CS(C)=O)cc2)c1-c1ccc(F)cc1` (stereo not drawn), with 240 to 241 °C; and `O=C(CCCl)c1ccc2c(c1)Cc1cc(C(=O)CCCl)ccc1O2`, with 180 to 181 °C.

In the case of `CCCCn1c(C)c(Br)c(=O)c(C(=O)Nc2c(CC)cccc2CC)c1C`, the melting point was 158 to 160 °C. Then `COc1cccc(Oc2c(NS(=O)(=O)c3ccc(C(C)(C)C)cc3)ncnc2OCCOc2cccnn2)c1`, with 170 °C; and `Cc1nc2cccc(OCC(C)(C)NC(=O)C(C)C)c2c(N)c1C(=O)O`, with 184 to 186 °C; and `CCOC(=O)COc1cc2c(c(Cl)c1Cl)C(=O)C(CC#C[Si](C)(C)C)(c1ccc(Cl)cc1)C2` (stereo not drawn), with 103 to 104 °C. Then `COc1cc(NNc2nccc(Nc3ccc(N(C)C)cc3)n2)cc(OC)c1OC`, with 212 °C. The figure for `O=C1CC(c2cccc(OCc3ccccc3)c2)=Nc2ccc(N3CCCC3)cc21` is 320 to 322 °C.

In turn, `O=C1c2ccccc2C(=O)N1CC(=O)N1c2ccccc2N(Cc2ccccc2F)C(=O)[C@H]2CCC[C@H]21` (relative stereo) registered a melting point of 250 to 253 °C. Turning to `C=CC(C)(C)CC(NC(=O)c1ccc(Cl)cc1)NC(=NC#N)Nc1cccnc1` (stereo not drawn), the melting point fell in the range of 171 to 172 °C.

`Cc1cnc(Cl)c(C(=O)N(CCO)Cc2cc(C(F)(F)F)cc(C(F)(F)F)c2)c1-c1ccccc1` came in with a melting point of 146 to 148 °C. Then `Cc1cc(-c2nc3ccccc3c(=O)n2-c2ccc(Br)cc2)ccc1OCCO`, with 92 to 93 °C.

For the molecule `CN(C)CCCCCCNC(=O)c1ccc(-c2nnc(CSCCOc3ccccc3)o2)cc1`, the melting point fell in the range of 86 to 93 °C. The figure for `COc1ccc(C=NNC(=O)COc2ccc(C3=NNC(=O)CC3)cc2Cl)cc1` is 220 to 222 °C; for `CC(C)n1cnc(-c2ccc(F)cc2)c1-c1ccncc1` it is 179 to 180 °C. As to `COc1cccc(OC)c1Cc1c(Cl)ncnc1Cl`, the melting point lay in the range of 152 to 153 °C. Then `O=C1NC(=O)c2c1c(-c1ccccc1Cl)cc1[nH]c3ccc(C(O)CO)cc3c21` (stereo not drawn), with 265 to 268 °C; and `Cc1ccc(C2=C(c3ccc(S(C)(=O)=O)cc3)C(=O)N(C)C2)cc1`, with 183 to 185 °C; and `NCCNc1cnnc(N)n1`, with 186 to 191 °C. Then `Cc1cc(C)nc(NCC(O)CO)n1` (stereo not drawn), with 124 to 127 °C. Consider `C#CCCCC(=O)c1cc(C)c(O)c(C(C)(C)C)c1`, for which the melting point was 63 to 64 °C. The figure for `CCOC(=O)c1cn(-c2ccc(OC)cc2)c2c(F)c(F)c(F)c(C)c2c1=O` is 175 to 176 °C; for `COC(=O)/C=C/c1ccc(OCc2oc(-c3ccc(C(F)(F)F)cc3)nc2C)cc1C` it is 124 to 126 °C.

Take `CCC(=O)c1c[nH]c2cc(C(=O)OC)ccc12`: the melting point lay within 229 to 231 °C.

In the case of `CCOC(=O)CC(=O)c1ccc(-c2ccc(Cl)cc2)cc1`, the melting point is 45 to 50 °C.

In the case of `CCc1nnc(-c2ccc(NC)cc2)n1-c1ccc(OC)cc1`, the melting point was 198 °C. The figure for `COc1ccc2cc(C(O)=CC(C)=O)cc(F)c2c1` is 107 to 108 °C; for `Oc1cc(N=Nc2ccccn2)ccc1-c1ccc(-c2ccc(N=Nc3ccccn3)cc2O)o1` it is 164 to 165 °C. With `CC(C)CN(Cc1ccccc1)c1ncnc2c1ncn2C1CCCCO1` (stereo not drawn), the melting point fell in the range of 93 to 95 °C. The figure for `CCCCOc1nc(O)ns1` is 62 °C; for `CCCCOCC(O)COc1ccc(-c2nc(-c3ccc(C)cc3C)nc(-c3ccc(C)cc3C)n2)c(O)c1` (stereo not drawn) it is 80 to 83 °C. Molecule `Cn1cc(C2=C(c3c4n(c5ccccc35)CC(NC(=O)OC(C)(C)C)CC4)C(=O)OC2=O)c2ccccc21` (stereo not drawn) registered a melting point of 141 to 145 °C. The figure for `CCCCCCCCCCCCCCC(O)(CCCCCC(=O)O)CCCCCC(=O)O` is 79 to 80 °C. Then `O=C(O)COc1cc2cc(C3CCCC3)sc2c(Cl)c1Cl`, with 173 to 174 °C; and `Cc1cc(Nc2ccc(Cl)cc2)nc(-c2cccc(Cl)n2)n1`, with 239 °C.

Molecule `Cn1nc(-c2ncc(Cl)cc2F)c(C=O)c1OC(F)F` displayed a melting point of 111 to 116 °C. Consider `FC1CC(Nc2ncnc3[nH]ncc23)CCC1OCC(F)(F)c1ccccc1` (stereo not drawn), for which the melting point lay within 178 to 179 °C. `CCCOc1ccc(S(=O)(=O)N2CCN(CCOC(=O)C(C)C)CC2)cc1-c1nc2c(CCC)cn(CC)c2c(=O)[nH]1` registered a melting point of 88 to 89 °C. Then `O=C(O)c1cc(Br)cc(OCc2ccccc2Cl)c1OCc1ccccc1Cl`, with 186 to 187 °C; and `CCOC(=O)CCCCNc1ncc([N+](=O)[O-])cc1[N+](=O)[O-]`, with 70 to 72 °C; and `O=C(O)c1cn(C2CC2)c2cc(N3CCNC(COc4ccccc4)C3)c(F)cc2c1=O` (stereo not drawn), with 112 to 115 °C.

Regarding `COc1cc(OC)c(C(O)=S)cc1C`, the melting point lay within 151 to 153 °C.

`CN1CCCN(c2ccc(/C=C/c3cc(/C=C/c4ccc5cc[nH]c5c4)[nH]n3)c(Br)c2)CC1` returned a melting point of 132 to 136 °C. The figure for `COc1c(C)c(N2CCN(c3ccc(C(F)(F)F)cc3)CC2)c(C)c2c1OC(C)(C)C2` is 186 to 187 °C; for `O=C(O)CNC(=O)c1c(F)cccc1[N+](=O)[O-]` it is 148 to 150 °C. Then `CC(=O)OCOC(=O)c1oc(-c2ccccc2)cc(=O)c1Br`, with 121 °C.

`O=c1[nH][nH]c(=O)n1Cc1ccccc1` had a melting point of 185 to 188 °C. Then `CC[C@H](C)C(OCc1ccccc1F)[C@H]1[C@H]([N+](=O)[O-])[C@@H](c2cccs2)N[C@@H]1C(=O)NCCC(=O)O` (stereo partly drawn), with 94 to 96 °C. Then `CCOc1cc2ncc(C#N)c(Nc3ccccc3)c2cc1OCC`, with 168 to 170 °C. The figure for `Cc1c(-c2ccccc2)nn(C(C)C(=O)N(C)C)c1C` (stereo not drawn) is 76 to 79 °C; for `O=C(Br)Cc1ccc(-c2cccc(Cl)c2)cc1` it is 63 to 65 °C. The molecule `CC1=CC(c2ccc(F)c(Cl)c2)C2=C(CCCC2=O)N1` (stereo not drawn) yielded a melting point of 164 to 167 °C. In turn, `O=c1oc(C(F)(F)F)ccc1-c1ccc(Cl)cc1F` yielded a melting point of 107 to 108 °C.

In turn, `N#CN=C(Nc1ccc(NCCF)nc1)Oc1ccccc1` displayed a melting point of 157 to 158 °C.

As for `O=C(Cn1c(-c2cccc(Br)c2)nc2cccnc21)N1CCCCC1`, the melting point lay in the range of 157 to 158 °C.

With `Nc1nc(N)nc(-c2cccc(S(N)(=O)=O)c2)n1`, the melting point is > 290 °C.

In turn, `Cc1cc(CC(=O)NCc2cccc3c2C(=O)N(C2CCC(=O)NC2=O)C3=O)on1` (stereo not drawn) showed a melting point of 179 to 181 °C. The figure for `CC(=O)Nc1ccc(Oc2c(NCc3ccccc3)cc(C(=O)O)cc2S(N)(=O)=O)cc1` is 255 °C; for `Cc1nc(CO)c(CO)[nH]1` it is 182 °C.

As to `O=c1c2cnc(-c3ccccc3)nc2sn1CCc1ccccc1`, the melting point lay within 144 to 147 °C. Then `CN1Cc2csc(=S)n2-c2ccc(F)c(F)c21`, with 165 to 167 °C. Then `COCCNC(=O)c1cc(C(=O)OC)c2cc(Cc3ccc(F)cc3)cnc2c1O`, with 165 to 167 °C.
